What was measured:
Assay type in all cases: cell-based
[1] = target: T1, urease of intact Proteus mirabilis cells (Proteus mirabilis, UniProt P17086); experiment: anti-urease potency using intact Proteus mirabilis cells as the source of urease; settings: 40 minutes preincubation, pH 8.0, ammonia formed in five minutes after addition of urea; read-out: concentration evincing a 50% inhibition of the urease of intact Proteus mirabilis cells
T1 construct: using intact Proteus mirabilis cells as the source of urease; endogenous in cells
T1 sequence (P17086 whole entry): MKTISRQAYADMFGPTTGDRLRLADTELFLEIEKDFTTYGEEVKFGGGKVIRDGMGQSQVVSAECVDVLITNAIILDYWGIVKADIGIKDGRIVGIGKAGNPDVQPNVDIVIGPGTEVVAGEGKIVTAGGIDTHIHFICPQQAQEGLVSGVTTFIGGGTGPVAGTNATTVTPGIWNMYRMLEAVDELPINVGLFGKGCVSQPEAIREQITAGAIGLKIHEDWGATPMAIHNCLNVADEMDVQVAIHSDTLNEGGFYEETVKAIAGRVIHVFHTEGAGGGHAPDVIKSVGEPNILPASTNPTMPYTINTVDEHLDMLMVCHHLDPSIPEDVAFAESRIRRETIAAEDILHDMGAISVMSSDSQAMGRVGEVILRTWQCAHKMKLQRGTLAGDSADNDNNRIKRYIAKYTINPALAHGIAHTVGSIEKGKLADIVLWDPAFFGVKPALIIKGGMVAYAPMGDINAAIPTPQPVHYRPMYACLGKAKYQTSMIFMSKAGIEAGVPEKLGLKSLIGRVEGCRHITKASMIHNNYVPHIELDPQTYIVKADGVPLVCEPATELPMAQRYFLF
Experimental: The anti-urease potency of the compound of this invention was determined using intact Proteus mirabilis cells as the source of urease. Compounds were preincubated with Proteus mirabilis cells suspended in a saline solution (0.1 molar) buffered with 0.1 molar tris(hydroxymethyl)aminomethane (pH 8.0). After 40 minutes preincubation, the remaining urease activity was determined by collecting the ammonia formed in five minutes after the addition of the substrate, urea. Ammonia assays were carried out according to the procedure of Seligson and Seligson [J. Lab. Clin. Med. 38, 324-330 (1951)]. Percent inhibition was calculated by comparing the amount of ammonia generated by cells preincubated with 3-[[(4-aminophenyl)sulfonyl]amino]-N-[diaminophosphinyl]-benzamide with the controls, in which preincubation was carried out in the absence of compound.

[2] = system: Proteus mirabilis; experiment: in vitro antibacterial activity; settings: commonly employed in vitro techniques
Text: (§1) It is particularly inimical to Proteus mirabilis and Escherichia coli at levels of 1.4 to 5.5×10^-5 molar in commonly employed in vitro techniques for determining antibacterial activity.

[3] = system: Escherichia coli; experiment: in vitro antibacterial activity; settings: commonly employed in vitro techniques
Text: as §1

Nc1ccc(S(=O)(=O)Nc2cccc(C(=O)NP(N)(N)=O)c2)cc1 [3-[[(4-aminophenyl)sulfonyl]amino]-N-[diaminophosphinyl]-benzamide]
IC50 [1]: 2000 nM
antibacterial activity level (inimical concentration) [2]: 1.4 to 5.5×10^-5 molar
antibacterial activity level (inimical concentration) [3]: 1.4 to 5.5×10^-5 molar
